Data taken from patent US9884048B2, “ERK inhibitors” (Merck Sharp & Dohme Corp., priority 2014, dated 2018).

Biological target: phosphorylated active hERK2 enzyme (Homo sapiens (Human), UniProt P28482)
Details: read-out: ERK2 IC50; IMAP-FP assay; 0.5 nM hERK2, 30 μM ATP; 10 point titration, 3 μM starting concentration

phosphorylated active hERK2 enzyme, sequence (P28482 whole entry): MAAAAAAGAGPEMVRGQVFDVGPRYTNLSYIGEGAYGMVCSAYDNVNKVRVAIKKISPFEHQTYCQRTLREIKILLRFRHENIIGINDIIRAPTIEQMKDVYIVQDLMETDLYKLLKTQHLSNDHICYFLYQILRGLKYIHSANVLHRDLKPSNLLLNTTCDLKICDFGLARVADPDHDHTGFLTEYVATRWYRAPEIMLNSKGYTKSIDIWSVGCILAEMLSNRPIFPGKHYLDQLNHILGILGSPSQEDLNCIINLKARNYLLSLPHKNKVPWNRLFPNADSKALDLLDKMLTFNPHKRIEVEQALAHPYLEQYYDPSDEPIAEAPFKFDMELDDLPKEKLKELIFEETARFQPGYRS

IC50: 69.3 nM
Structure (SMILES): Cn1ncc2cc(NC(=O)N[C@@H](c3ccccc3)C(C)(C)O)nc(CO)c21 [Example 226, 1-[7-(hydroxymethyl)-1-methyl-1H-pyrazolo[3,4-c]pyridin-5-yl]-3-[(1S)-2-hydroxy-2-methyl-1-phenylpropyl]urea]
